From ChEMBL document CHEMBL4706626, “Triterpenoid-Mediated Inhibition of Virus-Host Interaction: Is Now the Time for Discovering Viral Entry/Release Inhibitors from Nature?” (J Med Chem, 2020)

Columns and labels:
HEK293T = assay: Inhibition of Ebola virus pseudoparticle GP HR2 domain-mediated viral entry into human 293T cells at 1 uM incubated for 72 hrs by Bright-Glo reagent based assay relative to control; assay type: cell-based; conditions: Ebolavirus
[1] = test system: Human immunodeficiency virus 1; assay: Anti-HIV-1 activity against HIV1 NL4-3 infected in human HeLa expressing CD4/CCR5/beta-gal assessed as inhibition of syncytium formation incubated for 2 days by MAGI assay; assay type: functional, organism-based; conditions: Human immunodeficiency virus 1, NL4-3, HeLa, 48 h
Hepatitis C virus = assay: Antiviral activity against HCV pseudoparticle infected in Huh-7 cells assessed as inhibition of viral entry pretreated for 30 mins with cells followed by viral infection for 4 hrs and subsequent compound wash out and measured after 72 hrs by Bright-Glo reagent based luciferase assay; assay type: functional, organism-based, Hepacivirus hominis
[2] = Binding affinity to EBOV envelope glycoprotein HR2 domain by surface plasmon resonance; design: species or system Ebolavirus
[3] = Inhibition of Zaire Ebola virus pseudoparticle GP HR2 domain-mediated virus-host fusion in human A549 cells incubated for 72 hrs by Bright-Glo reagent based assay; assay type: cell-based, Zaire ebolavirus
[4] = Inhibition of Zaire Ebola virus pseudoparticle GP HR2 domain-mediated virus-host fusion in human 293T cells incubated for 72 hrs by Bright-Glo reagent based assay; assay type: cell-based, Zaire ebolavirus; conditions: hek293t
[5] = Antiviral activity against Ebola virus Makona infected in human HeLa cells pretreated for 2 hrs followed by viral infection for 48 hrs by Alexa Fluor 488 staining based assay; assay type: functional, cell-based; conditions: Zaire ebolavirus
[6] = Antiviral activity against Ebola virus Makona infected in human foreskin fibroblast pretreated for 2 hrs followed by viral infection for 48 hrs by Alexa Fluor 488 staining based assay; assay type: functional, cell-based; conditions: Zaire ebolavirus
[7] = Binding affinity to EBOV envelope glycoprotein HR2 domain assessed as reduction in HR1-HR2 interaction by measuring Kd for HR1-HR2 affinity by surface plasmon resonance (reference value: 1 uM); design: species or system Ebolavirus
[8] = test system: Human immunodeficiency virus 1; assay: Antiviral activity against HIV-1 harboring V307A mutant; assay type: functional, organism-based
[9] = test system: Human immunodeficiency virus 1; assay: Antiviral activity against HIV-1 NL4-3; assay type: functional, organism-based; conditions: Human immunodeficiency virus 1, NL4-3
[10] = test system: Human immunodeficiency virus 1; assay: Anti-HIV-1 activity against HIV1 IIIB/LAI infected in human CEM 4 cells assessed as reduction in virus-indued cytopathic effect treated for 1 hr with cells followed by viral infection and measured after 5 days; assay type: functional, organism-based; conditions: Human immunodeficiency virus 1, IIIB/LAI
Human coronavirus 229E = assay: Antiviral activity against HCoV-229E infected in human MRC5 cells incubated for 2 hrs by XTT method; assay type: functional, organism-based; conditions: MRC5, 2 h
[11] = Selectivity index, ratio of CC50 for human MRC5 cells to EC50 for HCoV-229E infected in human MRC5 cells; assay type: toxicity, cell-based; conditions: MRC5 cells (CC50) and HCoV-229E-infected MRC5 cells (EC50)
[12] = test system: Human immunodeficiency virus 1; assay: Anti-HIV-1 activity against HIV1 IIIB infected in human H9 cells assessed as in p24 antigen production by sandwich ELISA; assay type: functional, organism-based; conditions: Human immunodeficiency virus 1, IIIB
[13] = Aqueous solubility of compound; assay type: physicochemical
Albumin = Albumin (Homo sapiens, UniProt P02768); assay: Protein binding in human serum albumin; assay type: ADME; conditions: read-out: PB
Sequence of Albumin (P02768 whole entry): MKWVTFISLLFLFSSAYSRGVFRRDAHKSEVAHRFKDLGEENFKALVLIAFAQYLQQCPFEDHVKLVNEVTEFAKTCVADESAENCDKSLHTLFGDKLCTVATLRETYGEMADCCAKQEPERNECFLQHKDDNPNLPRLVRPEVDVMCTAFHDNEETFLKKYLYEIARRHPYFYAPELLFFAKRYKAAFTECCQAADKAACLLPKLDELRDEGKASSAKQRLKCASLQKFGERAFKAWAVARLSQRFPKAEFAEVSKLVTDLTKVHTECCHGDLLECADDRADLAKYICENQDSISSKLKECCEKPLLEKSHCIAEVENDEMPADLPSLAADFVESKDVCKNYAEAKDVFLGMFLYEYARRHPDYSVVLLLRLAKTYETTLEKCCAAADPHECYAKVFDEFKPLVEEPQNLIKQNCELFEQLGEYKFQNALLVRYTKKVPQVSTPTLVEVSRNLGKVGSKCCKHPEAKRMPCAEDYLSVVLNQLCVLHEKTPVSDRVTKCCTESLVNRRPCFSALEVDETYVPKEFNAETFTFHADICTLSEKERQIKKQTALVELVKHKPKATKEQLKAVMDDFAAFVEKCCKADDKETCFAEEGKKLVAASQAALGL

SMILES: CC1(C)CC[C@]2(C(=O)O)[C@H](O)C[C@]3(C)C(=CC[C@@H]4[C@@]5(C)CC[C@H](O)C(C)(C)[C@@H]5CC[C@]43C)[C@@H]2C1
- inhibition (HEK293T): 2%

SMILES: CC(=O)OC[C@H]1O[C@@H](NC(=O)[C@]23CCC(C)(C)C[C@H]2C2=CC[C@@H]4[C@@]5(C)CC[C@H](O)C(C)(C)[C@@H]5CC[C@@]4(C)[C@]2(C)CC3)[C@@H](OC(C)=O)[C@@H](OC(C)=O)[C@@H]1OC(C)=O
- inhibition (HEK293T): -4%

SMILES: CC(=O)OC[C@H]1O[C@@H](NC(=O)[C@]23CCC(C)(C)C[C@H]2C2=CC[C@@H]4[C@@]5(C)CC[C@H](O)C(C)(C)[C@@H]5CC[C@@]4(C)[C@]2(C)C[C@H]3O)[C@H](OC(C)=O)[C@@H](OC(C)=O)[C@H]1OC(C)=O
- inhibition (HEK293T): 22%

SMILES: CC(=O)OC[C@H]1O[C@@H](NC(=O)[C@]23CCC(C)(C)C[C@H]2C2=CC[C@@H]4[C@@]5(C)CC[C@H](O)C(C)(C)[C@@H]5CC[C@@]4(C)[C@]2(C)CC3)[C@H](OC(C)=O)[C@@H](OC(C)=O)[C@H]1OC(C)=O
- inhibition (HEK293T): 32%

SMILES: C=C(C)[C@@H]1CC[C@]2(C(=O)NCCCCCCCC(=O)N[C@@H](CC(C)C)[C@H](O)CC(=O)O)CC[C@]3(C)[C@H](CC[C@@H]4[C@@]5(C)CC[C@H](O)C(C)(C)[C@@H]5CC[C@]43C)[C@@H]12
- EC50 [1]: 400 nM

SMILES: CC(=O)OC[C@H]1O[C@@H](NC(=O)[C@]23CCC(C)(C)C[C@H]2C2=CC[C@@H]4[C@@]5(C)CC[C@H](O)C(C)(C)[C@@H]5CC[C@@]4(C)[C@]2(C)C[C@H]3O)[C@@H](OC(C)=O)[C@@H](OC(C)=O)[C@@H]1OC(C)=O
- inhibition (HEK293T): 17%

SMILES: CC1(C)CC[C@]2(C(=O)N[C@@H]3O[C@H](CO)[C@H](O)[C@H](O)[C@H]3O)CC[C@]3(C)C(=CC[C@@H]4[C@@]5(C)CC[C@H](O)C(C)(C)[C@@H]5CC[C@]43C)[C@@H]2C1
- inhibition (HEK293T): 16%

SMILES: CC1(C)CC[C@]2(C(=O)O)CC[C@]3(C)C(=CC[C@@H]4[C@@]5(C)CC[C@H](O)C(C)(C)[C@@H]5CC[C@]43C)[C@@H]2C1 [OLEANOLIC_ACID]
- inhibition (HEK293T): 1%
- IC50 (Hepatitis C virus): 10000 nM

SMILES: CC1(C)CC[C@]2(C(=O)N[C@@H]3O[C@H](CO)[C@@H](O)[C@H](O)[C@@H]3O)[C@H](O)C[C@]3(C)C(=CC[C@@H]4[C@@]5(C)CC[C@H](O)C(C)(C)[C@@H]5CC[C@]43C)[C@@H]2C1
- inhibition (HEK293T): 3%

SMILES: C#CCN(CCCC1(C)N=N1)C(=O)[C@]12CCC(C)(C)C[C@H]1C1=CC[C@@H]3[C@@]4(C)CCC(=O)C(C)(C)[C@@H]4CC[C@@]3(C)[C@]1(C)CC2=O
- Kd [2]: 16800 nM

SMILES: CC(C)C[C@H](NC(=O)CCCCCCCNC(=O)[C@]12CC[C@@H](C(C)C)[C@@H]1[C@H]1CC[C@@H]3[C@@]4(C)CC[C@H](O)C(C)(C)[C@@H]4CC[C@@]3(C)[C@]1(C)CC2)[C@H](O)CC(=O)O
- EC50 [1]: 330 nM

SMILES: CC1(C)CCC2C(=O)C[C@]3(C)C(=CC[C@@H]4[C@@]5(C)CCC(=O)C(C)(C)[C@@H]5CC[C@]43C)[C@@H]2C1 (stereo partly drawn)
- IC50 [3]: 1350 nM
- IC50 [4]: 1350 nM
- inhibition (HEK293T): 52%

SMILES: CC(=O)OC[C@H]1O[C@@H](NC(=O)[C@]23CCC(C)(C)C[C@H]2C2=CC[C@@H]4[C@@]5(C)CCC(=O)C(C)(C)[C@@H]5CC[C@@]4(C)[C@]2(C)CC3=O)[C@H](OC(C)=O)[C@@H](OC(C)=O)[C@H]1OC(C)=O
- IC50 [3]: 59.2 nM
- IC50 [4]: 59.2 nM
- EC50 [5]: 460 nM
- inhibition (HEK293T): 99%
- EC50 [6]: 990 nM
- Kd [2]: 5400 nM
- Kd [7]: 23400 nM

SMILES: CC1(C)CC[C@]2(C(=O)O)CC[C@]3(C)C(=CC[C@@H]4[C@@]5(C)CCC(=O)C(C)(C)[C@@H]5CC[C@]43C)[C@@H]2C1
- inhibition (HEK293T): 25%

SMILES: CC(C)C1=C2[C@H]3CC[C@@H]4[C@@]5(C)CC[C@H](OC(=O)CC(C)(C)C(=O)O)C(C)(C)[C@@H]5CC[C@@]4(C)[C@]3(C)CC[C@@]2([C@@H](O)CN(CCN(C)C)Cc2ccc(Cl)cc2)CC1=O [GSK2838232]
- IC50 [8]: 0.71 nM
- IC50 [9]: 0.81 nM

SMILES: CC(=O)OC[C@H]1O[C@@H](NC(=O)[C@]23CCC(C)(C)C[C@H]2C2=CC[C@@H]4[C@@]5(C)CCC(=O)C(C)(C)[C@@H]5CC[C@@]4(C)[C@]2(C)CC3)[C@H](OC(C)=O)[C@@H](OC(C)=O)[C@H]1OC(C)=O
- IC50 [3]: 467 nM
- IC50 [4]: 467 nM
- inhibition (HEK293T): 93%

SMILES: CC1(C)CC[C@]2(C(=O)N[C@@H]3O[C@H](CO)[C@@H](O)[C@H](O)[C@@H]3O)CC[C@]3(C)C(=CC[C@@H]4[C@@]5(C)CC[C@H](O)C(C)(C)[C@@H]5CC[C@]43C)[C@@H]2C1
- inhibition (HEK293T): -5%

SMILES: CC1(C)CC[C@]2(C(=O)N[C@@H]3O[C@H](CO)[C@H](O)[C@H](O)[C@H]3O)[C@H](O)C[C@]3(C)C(=CC[C@@H]4[C@@]5(C)CC[C@H](O)C(C)(C)[C@@H]5CC[C@]43C)[C@@H]2C1
- inhibition (HEK293T): 16%

SMILES: C=C(C)[C@@H]1CC[C@]2(C(=O)NCCCCCCCCCCC(=O)O)CC[C@]3(C)[C@H](CC[C@@H]4[C@@]5(C)CC[C@H](O)C(C)(C)[C@@H]5CC[C@]43C)[C@@H]12
- IC50 [10]: 230 nM

SMILES: CC1(C)CC[C@]2(C(=O)N[C@@H]3O[C@H](CO)[C@H](O)[C@H](O)[C@H]3O)C(=O)C[C@]3(C)C(=CC[C@@H]4[C@@]5(C)CCC(=O)C(C)(C)[C@@H]5CC[C@]43C)[C@@H]2C1
- inhibition (HEK293T): 6%

SMILES: C[C@H]1O[C@@](O)(O[C@H]2CC[C@@]3(C)[C@@H](CC[C@]4(C)[C@@H]3C=CC3=C5CC(C)(C)CC[C@]5(CO)[C@H](O)C[C@]34C)[C@]2(C)CO)[C@H](O)[C@@H](O[C@@H]2O[C@H](CO)[C@@H](O)[C@H](O)[C@H]2O)[C@H]1O
- IC50 (Human coronavirus 229E): 1700 nM
- selectivity ratio [11]: 222

SMILES: C=C(C)[C@@H]1CC[C@]2(C(=O)NCCCCCCCC(=O)N[C@@H](CC(C)C)[C@@H](O)CC(=O)O)CC[C@]3(C)[C@H](CC[C@@H]4[C@@]5(C)CC[C@H](O)C(C)(C)[C@@H]5CC[C@]43C)[C@@H]12
- IC50 [12]: 30 nM

SMILES: CC1(C)CC[C@]2(C(=O)N[C@@H]3O[C@H](CO)[C@H](O)[C@H](O)[C@H]3O)CC[C@]3(C)C(=CC[C@@H]4[C@@]5(C)CCC(=O)C(C)(C)[C@@H]5CC[C@]43C)[C@@H]2C1
- inhibition (HEK293T): 7%

SMILES: C=C(C)[C@@H]1CC[C@]2(C(=O)O)CC[C@]3(C)[C@H](CC[C@@H]4[C@@]5(C)CC[C@H](OC(=O)CC(C)(C)C(=O)O)C(C)(C)[C@@H]5CC[C@]43C)[C@@H]12 [BEVIRIMAT]
- solubility [13]: < 1 µg/mL
- fraction unbound (Albumin): < 0.01
